Results published in US5646316A, “Bile acid inhibitors of metalloproteinase enzymes” (OsteoArthritis Sciences, Inc., priority 1995, dated 1997).
Like-named read-outs stand apart in the source and are kept apart here.

What was measured:
collagenase = assay: Assay of Collagenase Inhibition Activity; format: biochemical; conditions: at 10 μM of compound; 45 minutes at 37° C.
Experimental: (§1) Stromelysin was first activated by trypsin. This was done by preparing a reaction mixture in B-150 (B-150 consists of 150 mM NaCl, 20 mM Tris at pH 7.8 and 0.02% sodium azide) containing a final concentration of 4 μg/mL trypsin, 1.48 μg/mL of stromelysin, and 3.15 mM CaCl2. The reaction was incubated for 30 minutes at 37° C. and then quenched by adding soybean trypsin inhibitor to a final concentration of 43.6 μg/mL. ZnCl2 was added to the reaction mixture for a total concentration of 0.24 μM.
(§2) Following preparation of the solution of activated stromelysin, assay solutions were prepared for each inhibitor being tested. A control was also prepared. First, […] of activated stromelysin (about 45 μL from the solution of activated stromelysin) were aliquotted per assay tube. A 2.5 mM solution in 100% dimethyl sulfoxide (DMSO) was prepared for each inhibitor being tested and 1 μL from each inhibitor solution was added to one of the assay tubes. In addition, 1 μL of 100% DMSO was added to the control assay tube. All assay tubes were then pre-incubated for 5 minutes.
(§3) 5 μL of a previously prepared 50 μM solution of substrate in 15% DMSO were added to each assay tube. The substrate was a methoxycumarin developed by Knight et al. FEBS Lett. 296:263-66 (1992). The tubes were then incubated for 60 minutes, at which time the reaction was stopped with the addition of 750 μL of 0.1M NaAc pH 4.0 buffer.
(§4) Substrate hydrolysis was assessed by fluorescence using a slit width of 10:10, excitation at 328 nm and emission at 393 nm. The results of these assays are listed in Table I as percent inhibition at 10 μM of the bile acid provided compound tested or as the IC50.
(§5) The assay procedure for collagenase was the same as described in Example 13 for stromelysin except that the trypsin activation was performed for 45 minutes. In addition, the incubation of the assay tubes at 37° C. was only for 45 minutes, and the final enzyme concentration is 6 nm. The results of these assays are provided in Table I as percent inhibition at 10 μM of the compound tested.

stromelysin = stromelysin (Homo sapiens, UniProt P08254); assay: Assay of Stromelysin Inhibition Activity (fluorogenic substrate hydrolysis); format: biochemical; conditions: for inhibition at 10 µM: read-out: percent inhibition of stromelysin
Chain of stromelysin (P08254 100-477): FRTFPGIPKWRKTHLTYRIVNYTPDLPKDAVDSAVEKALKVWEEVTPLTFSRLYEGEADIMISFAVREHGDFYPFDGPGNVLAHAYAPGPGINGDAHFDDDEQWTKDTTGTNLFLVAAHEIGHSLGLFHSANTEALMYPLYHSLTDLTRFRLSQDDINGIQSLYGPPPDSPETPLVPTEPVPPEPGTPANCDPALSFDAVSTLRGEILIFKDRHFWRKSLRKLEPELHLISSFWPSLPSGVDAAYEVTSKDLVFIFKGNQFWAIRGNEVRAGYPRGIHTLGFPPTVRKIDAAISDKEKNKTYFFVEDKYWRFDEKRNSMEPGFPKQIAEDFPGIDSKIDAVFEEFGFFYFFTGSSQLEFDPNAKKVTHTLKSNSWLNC
Experimental: as §1, §2, §3, §4

gelatinase (72 (Kd)) = target: T1, gelatinase (72 (Kd) (Homo sapiens, UniProt P08253)); assay: Assay of Gelatinase Inhibition Activity (72 Kd gelatinase); format: biochemical; conditions: for inhibition at 10 µM: read-out: percent inhibition of gelatinase
T1 sequence (P08253 110-660): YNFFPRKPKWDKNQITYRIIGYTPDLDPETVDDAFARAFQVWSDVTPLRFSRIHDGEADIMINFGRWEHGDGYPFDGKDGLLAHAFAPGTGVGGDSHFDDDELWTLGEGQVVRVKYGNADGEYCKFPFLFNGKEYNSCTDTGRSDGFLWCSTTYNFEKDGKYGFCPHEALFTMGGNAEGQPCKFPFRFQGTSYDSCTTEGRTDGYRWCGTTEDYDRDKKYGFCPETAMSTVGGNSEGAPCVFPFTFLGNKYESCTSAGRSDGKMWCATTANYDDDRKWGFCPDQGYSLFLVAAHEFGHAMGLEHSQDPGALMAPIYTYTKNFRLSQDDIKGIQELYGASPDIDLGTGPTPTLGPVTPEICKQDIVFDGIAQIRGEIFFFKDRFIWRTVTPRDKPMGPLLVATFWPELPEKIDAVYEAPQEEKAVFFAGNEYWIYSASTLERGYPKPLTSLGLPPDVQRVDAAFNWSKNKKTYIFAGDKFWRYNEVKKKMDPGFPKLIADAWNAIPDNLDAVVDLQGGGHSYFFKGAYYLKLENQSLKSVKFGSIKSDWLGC
Experimental: as §1, §2, §3, §4
as §5, with “gelatinase (72 (Kd)” for “collagenase”, “60” for “45”, “was” for “was only”, “was 3” for “is 6”, “listed” for “provided”

[1] = test system: bovine cartilage explants; assay: Bovine Cartilage Explant Assay (35S-GAG release, rhIL-1α stimulated; tissue culture); format: cell-based; conditions: Bos taurus, read-out: percent inhibition of extracellular matrix damage, Tissue Culture
Text: A tissue culture assay was used to measure the ability of the compounds of the present invention to slow the degradation of the extracellular matrix by metalloproteinases. This assay measured the amount of ^35 S-glycosaminoglycan (^35 S-GAG) released from labeled bovine cartilage explants.
Knee joints from a 1 to 3 week old calf were obtained immediately after sacrifice from the Abattoir and then transported on ice. The intact joints were washed well with tap water and soaked in 50% (v/v) Povidine iodine solution, obtained from Burre National, Inc., Baltimore, Md. All subsequent steps were performed in a laminar flow tissue culture hood using standard sterile technique. The joint was immobilized in a shank holder and the joint capsule was cut open to expose the articular cartilage. Cartilage explant plugs, approximately 15 mg wet weight, were removed from the flat articulating surfaces in the lower-most region of the knee joint using a sterile steel cork-borer and collected in a 250 mL roller bottle containing about 100 mL fresh Delbecco's minimum essential medium (DMEM), obtained from Gibco BRC, Life Technologies, Gaithersburg, Md., containing 4.5 g/1 (D)-glucose and (L)-glutamine, without sodium pyruvate. The fresh media also contained enough Hepes buffer and sodium bicarbonate such that the pH was about 7.4. The media was then further supplemented just before use with 100 units Penicillin, 100 μg Streptomycin, and 50 μg (L)-ascorbic acid per mL of medium.
Once collected, the explant plugs were washed four times with 50 mL fresh DMEM. The plugs were then placed in the incubator for a minimum of 1 hour to equilibrate, before proceeding to make disks from the articulating surface of each plug. A 1 mm thick disk was sliced from individual plugs from the end that was the articulating surface of the joint. The plug was held steady in the sterile template (4 mm diameter×1.5 mm deep) using sterile forceps. A scalpel blade was used to carefully slice off the disk. Only the superficial articulating surface responded well in culture.
Individual disks obtained were transferred to a tissue culture flask containing about 100 mL fresh media. The flask containing the disks was placed in an incubator at 37° C. (with 5% CO2, 95% air) and allowed to equilibrate overnight and at least one additional day before labeling. When ready to label, the old media was replaced with 50 mL fresh media containing about 500 μCi ^35 S-Sodium Sulfate. The plugs were labeled in bulk for about 48 hours. The next morning, the "hot" media was removed and replaced with fresh "cold" media. The disks were again allowed to equilibrate overnight before being used for actual experiments.
The media in which the disks were stored was changed immediately prior to performing the assay. The disks were then returned to the incubator until the test media and the two control media had been prepared. The test media consisted of a bile acid or bile acid derivative (50 μM) being tested for its ability to inhibit extracellular matrix degradation and concomitant recombinant human Interleukin rhIL-1α (5 ng/mL) in fresh DMEM solution. The control media were identical to the test media, except that the first control media lacked rhIL-1α and the second control media lacked an inhibitor, i.e. a bile acid or bile acid derivative. 250 μL of each of the test and control media were transferred to separate 96-well TC plates. Flamed forceps were used to transfer a disk from the incubator to each 96-well TC plates that had been filled with either the test media or one of the two control media.
The TC plates were then placed in the incubator and cultured for 3-4 days (initial incubation with rhIL-1α alpha takes at least 3 days to stimulate endogenous metalloproteinases). A 50 μL aliquot of media from each TC plate was saved and counted. The rest of the media was removed with a suction device.
The cartilage disks from each TC plate were also saved for counting. […]

chondrocytes = assay: Chondrocyte Cell Culture Matrix Breakdown Assay (35S release, rhIL-1α stimulated); format: cell-based, calf; conditions: at 50 μM; rhIL-1α 1 ng/ml; 22-24 hours
Experimental: A cell culture assay was used to measure the ability of compounds to slow the degradation of the extracellular matrix by a metalloproteinase. This assay measured the amount ^35 S released from chondrocytes grown in a media with ^35 S labeled sodium sulfate. The cell culture assay was carried out as follows:
Two or three 1 to 3 week old calf joints were obtained from an abattoir. The proximal end of the shank was at about 4-5" long to facilitate immobilization in the holder. The joint was kept cool and transported on ice. The exterior of the intact joints was washed well with a suitable anti-microbial soap, rinsed clean with warm water, rinsed in betadine and then finally rinsed with 70% ethanol. Up to this point all steps were done in a manner to ensure that the joint was kept as clean as possible. All subsequent steps were performed in a sterile field (i.e., in a Edgeguard laminar flow tissue culture hood). The joint was immobilized and the synovial fluid was aspirated with a needle and syringe. The joint was then cut open to expose the articular cartilage using a #21 scalpel. Using locking hemostats, forceps and a #15 scalpel, the cartilage was excised in full thickness pieces. Care was taken not to cut too deep because bleeding would have occurred if the subchondral bone, was penetrated. The cartilage pieces were placed into a 50 mL centrifuge tube containing 25 mL of Delbecco's phosphate buffered saline (D-PBS) supplemented with 1% antibiotic solution (penicillin, streptomycin and fungizone; GIBCO/BRL). The slices from each joint were then placed into separate 50 mL centrifuge tubes. The D-PBS was decanted and replaced with 25 mL of fresh D-PBS supplemented with antibiotics and subsequently agitated gently.
The cartilage pieces were transferred to a fresh 50 mL centrifuge tube and rinsed once more with 25 mL of D-PBS minus antibiotics. An enzymatic digestion solution containing 1 mg/mL of hyaluronidase in serum-free 1:1 DMEM/Ham's F-12 (DMEM/F12) was prepared. This solution was filter sterilized with […] Milex--GV filter and kept on ice until ready to use. The cartilage pieces were digested with approximately 5 mL of hyaluronidase solution per joint for 2×15 minutes at 37° C. in the 50 mL centrifuge tube with gentle agitation at the 15 minute mark. This procedure removed residual hyaluronic acid from the surface of the chips. The enzymatic digestion solution was then aspirated and the cartilage pieces were rinsed with 25 mL of D-PBS.
A second enzymatic digestion solution containing 2.5 mg trypsin and 2 mg collagenase P per mL serum-free DMEM/F12 was prepared. This solution was also filter sterilized with a […] Millex--GV filter and kept on ice until ready to use. The cartilage pieces were digested with approximately 5 mL of trypsin: collagenase solution per joint for 2×15 minutes at 37° C. in the 50 mL centrifuge tube with gentle agitation at the 15 minute mark. This procedure removed the synovial fibroblasts and any adherent connective tissue from the surface of the chips. The enzymatic digestion solution was then carefully removed and saved and the cartilage pieces were rinsed with 25 mL of D-PBS.
A third enzymatic solution containing 2 mgs of collagenase P (BMB) per mL serum-free DMEM/F12 was prepared. This solution was filter sterilized with a […] Millex--GV filter and kept on ice until ready to use. The pre-digested cartilage pieces were finally digested with approximately 20 mL of enzymatic digestion solution per joint for 5-6 hours at 37° C. in a Bellco stirring digestion flask, at which point the cartilage was fully digested away.
The enzymes in the synovial fibroblast and chondrocyte digest were neutralized by addition of an equal volume of DMEM/F12 supplemented with 5% fetal bovine serum. Fibroblasts were plated in DMEM at a cellular density of 6.6×10^3 cells per cm^2. […]

[2] = at 10 μM of compound, 60 minutes at 37° C.

| Structure (SMILES) | percent inhibition of collagenase (collagenase) [%] | inhibition at 10 µM (gelatinase (72 (Kd))) [%] | inhibition at 50 µM [1] [%] | inhibition at 10 µM (stromelysin; at 10 μM of compound) [%] | inhibition at 10 µM (gelatinase (72 (Kd)); [2]) [%] | further results |
| --- | --- | --- | --- | --- | --- | --- |
| C[C@H](CCC(=O)O)[C@H]1CC[C@H]2[C@@H]3[C@H](O)C[C@@H]4C[C@H](O)CC[C@]4(C)[C@H]3C[C@H](O)[C@]12C [Compound 7, Cholic acid, reference compound] | 21 | 4 | -90 |  |  | inhibition at 10 µM (stromelysin): 24% |
| C[C@H](CCC(=O)N[C@@H](Cc1c[nH]c2ccccc12)C(=O)O)[C@H]1CC[C@H]2[C@@H]3CC[C@@H]4C[C@H](O)CC[C@]4(C)[C@H]3CC[C@]12C [Compound 17, Lithocholyl-(L)-Tryptophane] |  | 5 | 8 |  |  |  |
| CC(C)C(CC(=O)NO)NC(=O)CC[C@@H](C)[C@H]1CC[C@H]2[C@@H]3CC[C@@H]4C[C@H](O)CC[C@]4(C)[C@H]3CC[C@]12C (stereo partly drawn) [Compound 21, Lithocholyl-β-Leucine Hydroxamic Acid] |  |  |  |  |  | IC50 (stromelysin; 60 minutes incubation): 3 µM; IC50 (gelatinase (72 (Kd)); 60 minutes at 37° C.): 7 µM; percent inhibition, Cell Culture (chondrocytes): 88% |
| C[C@H](CCC(=O)N[C@@H](Cc1c[nH]c2ccccc12)C(=O)NO)[C@H]1CC[C@H]2[C@@H]3CC[C@@H]4C[C@H](O)CC[C@]4(C)[C@H]3CC[C@]12C [Compound 18, Lithocholyl-(L)-Tryptophane Hydroxamic Acid] | 35 |  |  | 90 | 41 | inhibition at 50 µM ([1]; at 50 μM, rhIL-1α 5 ng/mL, 3-4 days): 3% |
| C[C@H](CCC(=O)NOCc1ccccc1)[C@H]1CC[C@H]2[C@@H]3CC[C@@H]4C[C@H](O)CC[C@]4(C)[C@H]3CC[C@]12C [Compound 11, Lithocholyl-O-Benzylhydroxamate] | 13 |  |  | 25 | 21 |  |
